Data as given in US7780989B2, “Process for the preparation of crystalline nano-particle dispersions” (AstraZeneca AB, priority 2002, dated 2010).
Read-outs that look alike come from different tables or passages of the source.

Assay: Crystalline and amorphous solubility of the substance
Assay type: physicochemical
Settings: water
Method: The solubility of the substance in water may be measured using a conventional technique. For example, a saturated solution of the substance is prepared by adding an excess amount of the substance to water at 25° C. and allowing the solution to equilibrate for 48 hours. Excess solids are removed by centrifugation or filtration and the concentration of the substance in water is determined by a suitable analytical technique such as HPLC. Without wishing to be bound by theory, it is thought that the formation of the initial suspension of amorphous particles following combination of the first solution with the aqueous phase promotes the subsequent formation of a uniform dispersion of nano-crystalline particles during the subsequent sonication. […] It is thought that the presence of the dispersion of amorphous particles during the sonication provides a reservoir of material in solution for the crystallisation step and thereby maintains a high and constant level of super-saturation relative to the crystalline solubility because of the higher amorphous solubility. The high and relatively constant degree of supersaturation provided by the presence of the amorphous particles provides favorable conditions for the formation of a large number of primary nuclei upon application of the ultrasound to the dispersion of amorphous particles. […]

solubility (25 °C, thermodynamic from solid, crystalline form, read-out: crystalline solubility): 2 µM | solubility (amorphous form, read-out: amorphous solubility): ~24 µM
SMILES: CCOC(=O)C1=C(C)NC(C)=C(C(=O)OC)C1c1cccc(Cl)c1Cl (centres unmarked) [felodipine]
